In data set [1] the test system is M. bovis BCG. The experiment in a line: microbe, parasite or virus in culture. The format is cell-based. As to conditions: Mycobacterium tuberculosis variant bovis BCG, read-out: MIC M. bovis BCG.
Data set [2] has as its system M. tuberculosis H37Rv. Kind of data set: Antimycobacterial MIC / primary screening, MABA (microplate alamar blue assay). The format is cell-based. The conditions noted are these: Mycobacterium tuberculosis.
In data set [3] the test system is M. abscessus. Kind of data set: Antimycobacterial MIC / primary screening, MABA. Type of data set: cell-based. As to conditions: Mycobacteroides abscessus, read-out: MIC M. abscessus.
In data set [4] the test system is L929 cells. The experiment in a line: Cytotoxicity, MTT protocol (ISO 10993-5:2009(E)). Type of data set: cell-based. The conditions noted are these: ratio to MIC against M. tuberculosis. The method, then:
This evaluation adhered precisely to international standards (ISO 10993-5:2009(E)), employing L929 cells and the MTT protocol ([Bekier et al., 2021]). The determination of the half maximal inhibitory concentration (IC50) values was carried out for 12 out of the 13 compounds tested, considering the occurrence of derivative precipitation in the growth medium for L929 cells (Table 1). […] For two compounds (5g and 5i), the discriminatory index (IC50/MIC) was identified at the level of 20.

Data set [5] deals with MTB InhA (Mycobacterium tuberculosis, UniProt P9WGR1). The experiment in a line: InhA inhibition endpoint assay. The conditions noted are these: read-out: IC50 against InhA. Type of data set: biochemical.

Structures are written as SMILES. Values after ≈ are worked out from the molar mass of the structure shown.

MTB InhA, sequence (P9WGR1 whole entry, looked up): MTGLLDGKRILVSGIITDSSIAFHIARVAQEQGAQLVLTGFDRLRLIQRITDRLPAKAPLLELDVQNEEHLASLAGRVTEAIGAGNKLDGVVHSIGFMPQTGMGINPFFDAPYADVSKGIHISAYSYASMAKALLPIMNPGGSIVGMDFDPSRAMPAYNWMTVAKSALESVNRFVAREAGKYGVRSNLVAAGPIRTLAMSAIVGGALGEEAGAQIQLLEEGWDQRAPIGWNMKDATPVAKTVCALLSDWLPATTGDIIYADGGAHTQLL

On to `Cc1c(-c2cc(C(=O)O)c3cc(Br)ccc3n2)nnn1-c1ccc(Br)cc1` [Compound 5w, 6-Bromo-2-(1-(4-bromophenyl)-5-methyl-1H-1,2,3-triazol-4-yl)benzo [b]pyridine-4-carboxylic acid], for which the melting point is greater than 300 °C. Also, in data set [1], the MIC is less than 125 µg/mL. In data set [2], this compound came in with an MIC of 15 µg/mL (≈ 30.7 µM). Further, in data set [3], the MIC is greater than 125 µg/mL. Moreover, the “IC50-L929/MIC Mtb (cytotoxicity / discriminatory index)” value in data set [4] worked out at 10.

`Cc1c(-c2cc(C(=O)O)c3cc(Br)ccc3n2)nnn1-c1cccc(Cl)c1` [Compound 5s, 6-Bromo-2-(1-(3-chlorophenyl)-5-methyl-1H-1,2,3-triazol-4-yl)benzo [b]pyridine-4-carboxylic acid] returned a melting point greater than 300 °C. Also, the MIC in data set [1] is less than 125 µg/mL. Further, the MIC in data set [2] amounted to 15 µg/mL (≈ 33.8 µM). Also, in data set [3], the MIC is greater than 125 µg/mL. Besides, the “IC50-L929/MIC Mtb (cytotoxicity / discriminatory index)” value in data set [4] was 13.

`Cc1c(-c2cc(C(=O)O)c3cc(Cl)ccc3n2)nnn1-c1ccc(Br)cc1` [Compound 5o, 2-(1-(4-Bromophenyl)-5-methyl-1H-1,2,3-triazol-4-yl)-6-chlorobenzo [b]pyridine-4-carboxylic acid] yielded a melting point greater than 300 °C. Moreover, the MIC in data set [1] is less than 125 µg/mL. In data set [2], the MIC worked out at 15 µg/mL (≈ 33.8 µM). The MIC in data set [3] was greater than 125 µg/mL. Besides, in data set [4], the “IC50-L929/MIC Mtb (cytotoxicity / discriminatory index)” value is reported as 10.

For `Cc1c(-c2cc(C(=O)O)c3ccccc3n2)nnn1-c1cccc(Br)c1` [Compound 5d, 2-(1-(3-Bromophenyl)-5-methyl-1H-1,2,3-triazol-4-yl)benzo [b]pyridine-4-carboxylic acid], the melting point was in the range of 248 to 250 °C. For the same compound, in data set [1], the MIC is less than 125 µg/mL. For the same compound, the MIC in data set [2] was determined as 62.5 µg/mL (≈ 153 µM). Besides, the MIC in data set [3] is greater than 125 µg/mL.

Regarding `NNC(=O)c1ccncc1` [INH, isoniazid, reference compound], the MIC was 0.05 µg/mL (≈ 0.365 µM) in data set [1], 0.1 µg/mL (≈ 0.729 µM) in data set [2] and 0.1 µg/mL (≈ 0.729 µM) in data set [3]. In data set [5], the half-inhibitory concentration (IC50) turned out to be 240 ± 10 nM.

Turning to `COc1ccc(-n2nnc(-c3cc(C(=O)O)c4cc(Cl)ccc4n3)c2C)cc1` [Compound 5j, 6-Chloro-2-(1-(4-methoxyphenyl)-5-methyl-1H-1,2,3-triazol-4-yl)benzo [b]pyridine-4-carboxylic acid], the melting point lay within 287 to 289 °C. In data set [1], the MIC is less than 125 µg/mL. Moreover, in data set [2], the MIC turned out to be 15 µg/mL (≈ 38 µM). The MIC in data set [3] was greater than 125 µg/mL. Besides, in data set [4], the “IC50-L929/MIC Mtb (cytotoxicity / discriminatory index)” value amounted to 10.

`Cc1c(-c2cc(C(=O)O)c3cc(Br)ccc3n2)nnn1-c1ccc(Cl)cc1` [Compound 5v, 6-Bromo-2-(1-(4-chlorophenyl)-5-methyl-1H-1,2,3-triazol-4-yl)benzo [b]pyridine-4-carboxylic acid] gave a melting point greater than 300 °C. Besides, the MIC in data set [1] is less than 125 µg/mL. In data set [2], the MIC is 15 µg/mL (≈ 33.8 µM). The MIC in data set [3] was greater than 125 µg/mL. In addition, in data set [4], the “IC50-L929/MIC Mtb (cytotoxicity / discriminatory index)” value came out at 13.

Turning to `Cc1c(-c2cc(C(=O)O)c3cc(Br)ccc3n2)nnn1-c1ccc([N+](=O)[O-])cc1` [Compound 5x, 6-Bromo-2-(5-methyl-1-(4-nitrophenyl)-1H-1,2,3-triazol-4-yl)benzo [b]pyridine-4-carboxylic acid], the melting point is 236 to 238 °C. Also, in data set [1], the MIC is less than 125 µg/mL. In addition, the MIC in data set [2] came out at 125 µg/mL (≈ 275 µM). Besides, in data set [3], the MIC is greater than 125 µg/mL.

With `Cc1c(-c2cc(C(=O)O)c3cc(Cl)ccc3n2)nnn1-c1cccc(Br)c1` [Compound 5L, 2-(1-(3-Bromophenyl)-5-methyl-1H-1,2,3-triazol-4-yl)-6-chlorobenzo [b]pyridine-4-carboxylic acid], the melting point was 248 to 250 °C. Moreover, the MIC in data set [1] was less than 125 µg/mL. In addition, in data set [2], the MIC is 15 µg/mL (≈ 33.8 µM). Moreover, in data set [3], the MIC was greater than 125 µg/mL. Further, the “IC50-L929/MIC Mtb (cytotoxicity / discriminatory index)” value in data set [4] is reported as 13.

For `Cc1c(-c2cc(C(=O)O)c3cc(Br)ccc3n2)nnn1-c1cccc(Br)c1` [Compound 5t, 6-Bromo-2-(1-(3-bromophenyl)-5-methyl-1H-1,2,3-triazol-4-yl)benzo [b]pyridine-4-carboxylic acid], the melting point is 299 to 300 °C. In addition, the MIC in data set [1] was less than 125 µg/mL. The MIC in data set [2] is 15 µg/mL (≈ 30.7 µM). Further, the MIC in data set [3] was greater than 125 µg/mL. In data set [4], the “IC50-L929/MIC Mtb (cytotoxicity / discriminatory index)” value turned out to be 13.

The compound `Cc1c(-c2cc(C(=O)O)c3ccccc3n2)nnn1-c1ccc(Cl)cc1` [Compound 5f, 2-(1-(4-Chlorophenyl)-5-methyl-1H-1,2,3-triazol-4-yl)benzo [b]pyridine-4-carboxylic acid] displayed a melting point of 246 to 248 °C. Also, the MIC in data set [1] was less than 125 µg/mL. In data set [2], this compound displayed an MIC of 62.5 µg/mL (≈ 171 µM). In data set [3], the MIC is greater than 125 µg/mL.

Take `Cc1c(-c2cc(C(=O)O)c3cc(Br)ccc3n2)nnn1-c1ccc(F)cc1` [Compound 5u, 6-Bromo-2-(1-(4-fluorophenyl)-5-methyl-1H-1,2,3-triazol-4-yl)benzo [b]pyridine-4-carboxylic acid]: the melting point is greater than 300 °C. In addition, the MIC in data set [1] was less than 125 µg/mL. This compound came in with an MIC in data set [2] of 62.5 µg/mL (≈ 146 µM). Besides, the MIC in data set [3] is greater than 125 µg/mL.

On to `Cc1c(-c2cc(C(=O)O)c3ccccc3n2)nnn1-c1ccc(F)cc1` [Compound 5e, 2-(1-(4-Fluorophenyl)-5-methyl-1H-1,2,3-triazol-4-yl)benzo [b]pyridine-4-carboxylic acid], for which the melting point was in the range of 290 to 291 °C. For the same compound, the MIC in data set [1] is less than 125 µg/mL. Further, in data set [2], the MIC was 125 µg/mL (≈ 359 µM). In data set [3], the MIC is greater than 125 µg/mL.

Compound `Cc1c(-c2cc(C(=O)O)c3cc(Br)ccc3n2)nnn1-c1ccccc1` [Compound 5q, 6-Bromo-2-(5-methyl-1-phenyl-1H-1,2,3-triazol-4-yl)benzo [b]pyridine-4-carboxylic acid] had a melting point greater than 300 °C. For the same compound, the MIC in data set [1] is less than 125 µg/mL. The compound also yielded an MIC in data set [2] of 15 µg/mL (≈ 36.7 µM). The MIC in data set [3] was greater than 125 µg/mL.

With `Cc1c(-c2cc(C(=O)O)c3ccccc3n2)nnn1-c1ccc([N+](=O)[O-])cc1` [Compound 5h, 2-(5-Methyl-1-(4-nitrophenyl)-1H-1,2,3-triazol-4-yl)benzo [b]pyridine-4-carboxylic acid], the melting point lay in the range of 265 to 267 °C. The MIC in data set [1] was less than 125 µg/mL. For the same compound, the MIC in data set [2] is 125 µg/mL (≈ 333 µM). For the same compound, in data set [3], the MIC is greater than 125 µg/mL.

Turning to `Cc1c(-c2cc(C(=O)O)c3ccccc3n2)nnn1-c1ccccc1` [Compound 5a, 2-(5-Methyl-1-phenyl-1H-1,2,3-triazol-4-yl)benzo [b]pyridine-4-carboxylic acid], the melting point was 278 to 280 °C. In data set [1], the MIC was less than 125 µg/mL. In addition, the MIC in data set [2] was determined as 125 µg/mL (≈ 378 µM). Further, the MIC in data set [3] is greater than 125 µg/mL.

Consider `Cc1c(-c2cc(C(=O)O)c3cc(Cl)ccc3n2)nnn1-c1cccc(Cl)c1` [Compound 5k, 6-Chloro-2-(1-(3-chlorophenyl)-5-methyl-1H-1,2,3-triazol-4-yl)benzo [b]pyridine-4-carboxylic acid], for which the melting point is greater than 300 °C. Moreover, the MIC in data set [1] was less than 125 µg/mL. In data set [2], this compound returned an MIC of 15 µg/mL (≈ 37.6 µM). Besides, the MIC in data set [3] was greater than 125 µg/mL. Besides, the “IC50-L929/MIC Mtb (cytotoxicity / discriminatory index)” value in data set [4] is recorded as 13.

With `COc1ccc(-n2nnc(-c3cc(C(=O)O)c4ccccc4n3)c2C)cc1` [Compound 5b, 2-(1-(4-Methoxyphenyl)-5-methyl-1H-1,2,3-triazol-4-yl)benzo[b]pyridine-4-carboxylic acid], the melting point lay in the range of 222 to 224 °C. Also, in data set [1], the MIC is less than 125 µg/mL. In data set [2], this compound gave an MIC of 62.5 µg/mL (≈ 173 µM). In addition, the MIC in data set [3] was greater than 125 µg/mL.

As to `Cc1c(-c2cc(C(=O)O)c3cc(Cl)ccc3n2)nnn1-c1ccc([N+](=O)[O-])cc1` [Compound 5p, 6-Chloro-2-(5-methyl-1-(4-nitrophenyl)-1H-1,2,3-triazol-4-yl)benzo [b]pyridine-4-carboxylic acid], the melting point lay in the range of 235 to 237 °C. For the same compound, the MIC in data set [1] is less than 125 µg/mL. For the same compound, the MIC in data set [2] came to 62.5 µg/mL (≈ 153 µM). For the same compound, the MIC in data set [3] is greater than 125 µg/mL.

The compound `Cc1c(-c2cc(C(=O)O)c3ccccc3n2)nnn1-c1cccc(Cl)c1` [Compound 5c, 2-(1-(3-Chlorophenyl)-5-methyl-1H-1,2,3-triazol-4-yl)benzo [b]pyridine-4-carboxylic acid] returned a melting point of 276 to 277 °C. Also, the MIC in data set [1] was less than 125 µg/mL. In data set [2], this compound returned an MIC of 62.5 µg/mL (≈ 171 µM). In data set [3], the MIC was greater than 125 µg/mL.

Regarding `COc1ccc(-n2nnc(-c3cc(C(=O)O)c4cc(Br)ccc4n3)c2C)cc1` [Compound 5r, 6-Bromo-2-(1-(4-methoxyphenyl)-5-methyl-1H-1,2,3-triazol-4-yl)benzo [b]pyridine-4-carboxylic acid], the melting point was 294 to 295 °C. Further, in data set [1], the MIC is less than 125 µg/mL. Also, the MIC in data set [2] amounted to 15 µg/mL (≈ 34.1 µM). Further, the MIC in data set [3] is greater than 125 µg/mL. In addition, the “IC50-L929/MIC Mtb (cytotoxicity / discriminatory index)” value in data set [4] was 5.

In turn, `Cc1c(-c2cc(C(=O)O)c3cc(Cl)ccc3n2)nnn1-c1ccc(F)cc1` [Compound 5m, 6-Chloro-2-(1-(4-fluorophenyl)-5-methyl-1H-1,2,3-triazol-4-yl)benzo [b]pyridine-4-carboxylic acid] yielded a melting point of 298 to 299 °C. For the same compound, the MIC in data set [1] is less than 125 µg/mL. The compound further displayed an MIC in data set [2] of 62.5 µg/mL (≈ 163 µM). Moreover, the MIC in data set [3] was greater than 125 µg/mL.

One may read the melting point as the temperature, or range, at which the solid turns liquid. Usually IC50 stands for the midpoint of a concentration-inhibition curve.

(Values after paper PMC11337105, “Identification of 2-(N-aryl-1,2,3-triazol-4-yl) quinoline derivatives as antitubercular agents endowed with InhA inhibitory activity” (Frontiers in Chemistry, 2024).)
